Test results from patent US11980607B2, “Methods of treating malignant lymphoproliferative disorders” (Actuate Therapeutics Inc., priority 2018, dated 2024).

Experiments:
Mantle Cell lymphoma = assay: Treatment of Mantle Cell Lymphoma in a human; format: in vivo; details: 3 mg/kg per day, six 21 day cycles
Description: A human suffering from Mantle Cell lymphoma is administered 3 mg/kg per day of 9-ING-41 for six 21 day cycles. After treatment, the human's MCL is in remission.

[1] = tested on: phospho-c-MYC in KPUM-UH1 cells; assay: Western blot analysis of c-MYC; format: cell-based; details: KPUM-UH1 double-hit lymphoma cell line
Description: c-MYC levels were analyzed in KPUM-UH1 cells via western blot for 9-ING-41 alone and the combination of 9ING-41 with either Venetoclax or BAY-1143572. Around 10 million cells were spun down at 200 rcf for 5 minutes and rinsed once with PBS before lysing in 50 μl of Millipore Milliplex MAP lysis buffer supplemented with protease and phosphatase inhibitors (Roche). Protein denatured in 4× sample buffer supplemented with β-mercaptoethanol (Bio-Rad) was loaded per well. Bio-Rad stain-free Criterion 4-20% precast gels were used. After running the gel at 140 volts for 90 minutes, Bio-Rad gel imager was used to activate the stain-free technology to visualize the total protein levels loaded in the gel. A nitrocellulose turbo-transfer pack and system (Bio-Rad) was then used to transfer the proteins to the membrane, and 5% w/v dry milk in Tris-buffered saline-0.1% Tween 20 (TBS-T) was used to block the membranes for 1 hour. Membranes were then incubated with the primary antibody diluted in 5% BSA in TBS-T overnight. Membranes were then rinsed in TBS-T 3 times (one 15 minute wash and two 5 minutes washes) and then incubated with the corresponding secondary antibody-conjugated with HRP for 1 hour and rinsed with TBS-T as before. […] Quantification of the band intensities were performed using Image J software (NIH).

[2] = tested on: primary lymphoma cells freshly isolated from patients; assay: Proliferation of primary lymphoma patient cells; format: cell-based, human; details: 5 patient samples (MCL, high grade B-cell lymphoma, follicular 3B, DLBCL, angioimmunoblastic TCL)
From the text: (A) Immunoblot of GSK-3α and GSK-3β proteins showing overexpression in patient samples vs normal B-cell control. P1: MCL; P2: High grade B-cell lymphoma; P3: follicular large B-cell lymphoma 3B; P4: DLBCL; P5: angioimmunoblastic T-cell lymphoma. (B) 9-ING-41 inhibited proliferation in all 5 patient samples. (C) Immunohistochemistry staining of GSK-3β on paraffin tissue sections of patients with various lymphoma. Representative images show the spectrum of GSK-3β (in brown) overexpression in different lymphoma samples. […] Images were collected under 40× magnification.
Lymphoma tissue samples were obtained from patients after written informed consent. This Lymphoma SPORE biospecimens protocol was approved by the Mayo Clinic Institutional Review Board in accordance with the Declaration of Helsinki. All primary patient samples were biopsy tissues from spleen or lymph nodes. Fresh tissue samples were gently dissociated into cell suspension and subjected to Ficoll-Paque density gradient centrifugation. Primary lymphoma cells were then used directly for proliferation assay, or stored in −80° C. for Western analysis later after lymphoma diagnosis confirmation.
Cells were seeded at 1×10^4 cells/well in 96 well plates, and incubated with 9-ING-41 at indicated concentrations for 48 hours followed by pulsing with tritium labeled thymidine for overnight before being analyzed for thymidine uptake. […]

[3] = tested on: Caspase 3/7 activity in lymphoma cells; assay: EnzChek Caspase 3 assay; format: cell-based; details: 24 hours
Description: An EnzChek caspase 3 assay (Thermo Fisher Scientific) was performed in accordance with the manufacturer's instructions. 100,000 cells were plated in a 12-well plate and treated with varying concentrations of 9-ING-41 for 24 hours in duplicate. At the end of treatment, cells were centrifuged at 200 rcf for 5 minutes and washed once with 1× PBS and lysed in 50 μL of 1× lysis buffer provided by the kit. For efficient lysis, cells were subjected to a single freeze-thaw cycle. The lysed cells were centrifuged again to remove cell debris, and the supernatant was used in the assay. 50 μL of 2× substrate working solution containing Z-DEVD-R110 substrate was added to the cell lysate, with a subsequent incubation at room temperature for 45 minutes. […] Both of these products were then measured using a Biotek synergy 2 fluorescent plate reader at corresponding wavelengths (excitation 496 nm/emission 520 nm). The fluorescent reading was normalized to the amount of protein in the cell lysate as determined via standard BCA assay (Pierce Thermo Fisher Scientific). Relative fluorescence was calculated after setting the no-treatment control to 1. […]

## Cn1cc(C2=C(c3coc4ccc(F)cc34)C(=O)NC2=O)c2cc3c(cc21)OCO3 [9-ING-41, 3-(5-Fluorobenzofuran-3-yl)-4-(5-methyl-5H-[1,3]dioxolo[4,5-f]indol-7-yl)pyrrole-2,5-dione]
Mantle Cell lymphoma
  Outcome after treatment: in remission
[1]
  Effect on phospho-c-MYC: phospho-c-MYC is modified
[2]
  Antiproliferative effect in primary patient cells: similarly responsive to the antiproliferative effects
[3]
  Concentration giving an increase in Caspase 3/7 activity: ≥ 0.5 µM
